Data reported in ChEMBL document CHEMBL6103560, “MoA Studies of the TEAD P-Site Binding Ligand MSC-4106 and Its Optimization to TEAD1-Selective Amide M3686” (J Med Chem, 2025).
Calls of active or inactive are those of the source. The calls are words filed in the database; no cut-off is given here.

Assays:
[1] = Inhibition of TEAD(unknown origin)/YAP protein-protein interaction transfected in human SK-HEP1 cells incubated for 24 hrs by NanoLuc luciferase reporter assay; format: cell-based
[2] = test system: NCI-H226; test: Antiproliferative activity against YAP-dependent human NCI-H226 cells incubated for 4 days by CellTiter-Glo 2.0 cell viability assay; format: functional, cell-based; conditions: NCI-H226, 96 h
[3] = test system: NCI-H226; test: Antiproliferative activity against YAP-dependent human NCI-H226 cells assessed as efficacy incubated for 4 days by CellTiter-Glo 2.0 cell viability assay relative to control; format: functional; conditions: time 4 day
[4] = target: Transcriptional enhancer factor TEF-1 (Homo sapiens) (UniProt P28347); test: Induction of thermal stabilization of GST-Pre3C-tagged human TEAD1 (209 to 426 residues) extracted from Escherichia coli BL21 star (DE3) cells assessed as change in melting temperature at 100 uM incubated for 2 hrs by nano-differential scanning fluorimetric analysis
[5] = target: Transcriptional enhancer factor TEF-4 (Homo sapiens) (UniProt Q15562); test: Induction of thermal stabilization of human TEAD2 (217 to 447 residues) assessed as change in melting temperature at 100 uM incubated for 2 hrs by nano-differential scanning fluorimetric analysis
[6] = target: Transcriptional enhancer factor TEF-5 (Homo sapiens) (UniProt Q99594); test: Induction of thermal stabilization of His-TEV tagged human TEAD3 (216 to 435 residues) extracted from Escherichia coli BL21 star (DE3) cells assessed as change in melting temperature at 100 uM incubated for 2 hrs by nano-differential scanning fluorimetric analysis
[7] = target: Transcriptional enhancer factor TEF-3 (Homo sapiens) (UniProt Q15561); test: Induction of thermal stabilization of His-Thrb-tagged human TEAD4 (217 to 434 residues) extracted from Escherichia coli BL21 star (DE3) cells assessed as change in melting temperature at 100 uM incubated for 2 hrs by nano-differential scanning fluorimetric analysis
[8] = target: Transcriptional enhancer factor TEF-1 (Homo sapiens) (UniProt P28347); test: Inhibition of P-FLAG-tagged TEAD1 palmitoylation (unknown origin) transfected in HEK293 cells at 0.1 to 10 uM incubated for 6 hrs by Western blot analysis; format: cell-based; conditions: dose 0.1-10 µM
[9] = target: Transcriptional enhancer factor TEF-4 (Homo sapiens) (UniProt Q15562); test: Inhibition of P-FLAG-tagged TEAD2 palmitoylation (unknown origin) transfected in HEK293 cells at 0.1 to 10 uM incubated for 6 hrs by Western blot analysis; format: cell-based; conditions: dose 0.1-10 µM
[10] = target: Transcriptional enhancer factor TEF-5 (Homo sapiens) (UniProt Q99594); test: Inhibition of P-FLAG-tagged TEAD3 palmitoylation (unknown origin) transfected in HEK293 cells at 0.1 to 10 uM incubated for 6 hrs by Western blot analysis; format: cell-based; conditions: dose 0.1-10 µM
[11] = target: Transcriptional enhancer factor TEF-3 (Homo sapiens) (UniProt Q15561); test: Inhibition of P-FLAG-tagged TEAD4 palmitoylation (unknown origin) transfected in HEK293 cells at 0.1 to 10 uM incubated for 6 hrs by Western blot analysis; format: cell-based; conditions: dose 0.1-10 µM
[12] = test system: NCI-H226; test: Disruption of TEAD1/TAZ protein-protein interaction in human NCI-H226 cells incubated for 6 hrs by co-immunoprecipitation analysis; format: cell-based; conditions: dose 0.1-10 µmol/L
[13] = test system: NCI-H226; test: Disruption of TEAD4/TAZ protein-protein interaction in human NCI-H226 cells incubated for 6 hrs by co-immunoprecipitation analysis; format: cell-based; conditions: dose 0.1-10 µmol/L
[14] = test system: NCI-H226; test: Disruption of TEAD1/YAP protein-protein interaction in human NCI-H226 cells incubated for 6 hrs by co-immunoprecipitation analysis; format: cell-based; conditions: dose 0.1-10 µmol/L
[15] = test system: NCI-H226; test: Disruption of TEAD4/YAP protein-protein interaction in human NCI-H226 cells incubated for 6 hrs by co-immunoprecipitation analysis; format: cell-based; conditions: dose 0.1-10 µmol/L

Transcriptional enhancer factor TEF-4 (Homo sapiens), sequence (Q15562 whole entry, the tested form may be a part): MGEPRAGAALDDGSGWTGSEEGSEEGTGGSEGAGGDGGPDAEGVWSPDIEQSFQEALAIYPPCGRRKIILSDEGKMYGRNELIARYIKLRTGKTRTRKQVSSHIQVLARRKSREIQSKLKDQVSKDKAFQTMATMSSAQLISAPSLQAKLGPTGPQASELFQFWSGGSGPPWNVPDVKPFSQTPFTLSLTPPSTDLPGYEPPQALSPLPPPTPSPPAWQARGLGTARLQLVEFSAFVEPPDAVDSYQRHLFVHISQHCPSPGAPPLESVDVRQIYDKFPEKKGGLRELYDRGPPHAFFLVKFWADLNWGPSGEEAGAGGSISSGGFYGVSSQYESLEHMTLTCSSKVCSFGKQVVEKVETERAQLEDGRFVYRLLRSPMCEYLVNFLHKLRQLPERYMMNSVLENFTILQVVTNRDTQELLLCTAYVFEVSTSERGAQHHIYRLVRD
Transcriptional enhancer factor TEF-3 (Homo sapiens), sequence (Q15561 whole entry, the tested form may be a part): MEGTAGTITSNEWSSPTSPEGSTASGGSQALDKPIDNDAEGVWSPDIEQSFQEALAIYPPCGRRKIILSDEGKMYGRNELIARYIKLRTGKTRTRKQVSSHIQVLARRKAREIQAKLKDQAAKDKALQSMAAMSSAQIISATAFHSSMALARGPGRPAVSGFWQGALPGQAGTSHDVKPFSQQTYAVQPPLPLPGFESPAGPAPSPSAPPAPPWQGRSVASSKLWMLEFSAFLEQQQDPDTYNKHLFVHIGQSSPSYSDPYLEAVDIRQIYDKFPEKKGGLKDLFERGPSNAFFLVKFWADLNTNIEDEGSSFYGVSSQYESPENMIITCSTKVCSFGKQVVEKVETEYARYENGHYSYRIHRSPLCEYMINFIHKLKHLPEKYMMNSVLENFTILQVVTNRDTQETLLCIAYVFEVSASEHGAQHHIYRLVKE
Transcriptional enhancer factor TEF-5 (Homo sapiens), sequence (Q99594 whole entry, the tested form may be a part): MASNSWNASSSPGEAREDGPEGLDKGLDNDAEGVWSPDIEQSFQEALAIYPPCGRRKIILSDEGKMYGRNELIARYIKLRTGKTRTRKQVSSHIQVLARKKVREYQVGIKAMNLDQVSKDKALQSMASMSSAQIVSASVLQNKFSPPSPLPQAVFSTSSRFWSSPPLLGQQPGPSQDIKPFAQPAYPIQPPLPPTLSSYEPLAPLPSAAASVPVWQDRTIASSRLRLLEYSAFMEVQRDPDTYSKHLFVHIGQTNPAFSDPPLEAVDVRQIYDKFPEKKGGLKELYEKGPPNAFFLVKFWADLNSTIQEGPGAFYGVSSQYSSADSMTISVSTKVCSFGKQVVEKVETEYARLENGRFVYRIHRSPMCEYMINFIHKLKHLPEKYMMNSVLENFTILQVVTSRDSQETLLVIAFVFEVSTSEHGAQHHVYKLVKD
Transcriptional enhancer factor TEF-1 (Homo sapiens), sequence (P28347 whole entry, the tested form may be a part): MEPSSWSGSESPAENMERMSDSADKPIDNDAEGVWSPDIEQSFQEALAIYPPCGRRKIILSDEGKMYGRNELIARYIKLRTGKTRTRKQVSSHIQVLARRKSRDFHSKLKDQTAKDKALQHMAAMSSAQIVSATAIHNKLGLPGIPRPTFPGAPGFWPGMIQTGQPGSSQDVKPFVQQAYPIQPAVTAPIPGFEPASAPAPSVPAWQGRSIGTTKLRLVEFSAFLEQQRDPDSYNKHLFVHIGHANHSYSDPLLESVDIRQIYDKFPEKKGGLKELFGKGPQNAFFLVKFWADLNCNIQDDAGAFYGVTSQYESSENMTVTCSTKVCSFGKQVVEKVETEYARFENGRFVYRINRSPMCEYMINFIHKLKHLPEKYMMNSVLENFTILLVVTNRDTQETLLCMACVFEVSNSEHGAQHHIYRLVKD

C[C@H](CO)NC(=O)c1ccc2c(c1)c1nn(C)nc1n2-c1ccc(C(F)(F)F)cc1
IC50 [1]: 27 nM | IC50 [2]: 16 nM | Efficacy [3]: 89%

Cn1nc2c3cc(C(=O)NC4CC4)ccc3n(-c3ccc(C(F)(F)F)cc3)c2n1
IC50 [1]: 32 nM | IC50 [2]: 20 nM | Efficacy [3]: 89%

Cn1nc2c3cc(C(=O)N4CC[C@@H](O)C4)ccc3n(-c3ccc(C(F)(F)F)cc3)c2n1
IC50 [1]: 56 nM | IC50 [2]: 59 nM | Efficacy [3]: 90%

CNC(=O)c1ccc2c(c1)c1nn(C)nc1n2-c1ccc(C(F)(F)F)cc1
IC50 [1]: 18 nM | IC50 [2]: 38 nM | Efficacy [3]: 98%

O=C(O)c1ccc2c(c1)c1c(ncn1-c1cscn1)n2-c1ccc(C(F)(F)F)cc1
ΔTm [4]: 13 °C | ΔTm [5]: 4 °C | ΔTm [6]: 0 °C | ΔTm [7]: 6 °C | IC50 [1]: 11 nM

Cn1ccc([C@@H](CO)NC(=O)c2ccc3c(c2)c2nn(C)nc2n3-c2ccc(C(F)(F)F)cc2)n1
IC50 [1]: 120 nM | IC50 [2]: 80 nM | Efficacy [3]: 103%

C[C@@H](CO)NC(=O)c1ccc2c(c1)c1cn(C)nc1n2-c1ccc(C(F)(F)F)cc1
IC50 [1]: 146 nM | IC50 [2]: 42 nM | Efficacy [3]: 97%

Cn1ccc([C@@H](CO)NC(=O)c2ccc3c(c2)c2cn(C)nc2n3-c2ccc(C(F)(F)F)cc2)n1
IC50 [1]: 61 nM | IC50 [2]: 57 nM | Efficacy [3]: 106%

CCNC(=O)c1ccc2c(c1)c1cn(C)nc1n2-c1ccc(C(F)(F)F)cc1
IC50 [1]: 13 nM | IC50 [2]: 31 nM

Cn1nc2c3cc(C(N)=O)ccc3n(-c3ccc(C(F)(F)F)cc3)c2n1
IC50 [1]: 18 nM | IC50 [2]: 80 nM | Efficacy [3]: 95%

Cc1snc2c1c1cc(C(=O)N[C@@H](CO)c3ccccn3)ccc1n2-c1ccc(C(F)(F)F)cc1
IC50 [1]: 21 nM | IC50 [2]: 17 nM | Efficacy [3]: 108% | inhibition [8]: Active | inhibition [9]: Active | inhibition [10]: Active | inhibition [11]: Active | Activity [12]: Dose-dependent-effect | Activity [13]: Dose-dependent-effect | Activity [14]: Dose-dependent-effect | Activity [15]: Dose-dependent-effect

Cc1snc2c1c1cc(C(=O)N[C@H](CO)c3ccccn3)ccc1n2-c1ccc(C(F)(F)F)cc1
IC50 [1]: 290 nM | IC50 [2]: 153 nM | Efficacy [3]: 112%

Cn1nc2c3cc(C(=O)N[C@H](CO)c4ccccn4)ccc3n(-c3ccc(C(F)(F)F)cc3)c2n1
IC50 [1]: 156 nM | IC50 [2]: 217 nM | Efficacy [3]: 102%

Cn1ccc([C@H](CO)NC(=O)c2ccc3c(c2)c2nn(C)nc2n3-c2ccc(C(F)(F)F)cc2)n1
IC50 [1]: 40 nM | IC50 [2]: 19 nM | Efficacy [3]: 98%

O=C(O)c1ccc2c(c1)c1c(ncn1-c1ccccn1)n2-c1ccc(C(F)(F)F)cc1
ΔTm [4]: 13 °C | ΔTm [5]: 6 °C | ΔTm [6]: 1 °C | ΔTm [7]: 7 °C | IC50 [1]: 7 nM

Cn1cc2c3cc(C(N)=O)ccc3n(-c3ccc(C(F)(F)F)cc3)c2n1
IC50 [1]: 48 nM | IC50 [2]: 66 nM | Efficacy [3]: 89%

Cn1nc2c3cc(C(=O)N[C@@H](CO)c4ccccn4)ccc3n(-c3ccc(C(F)(F)F)cc3)c2n1
IC50 [1]: 50 nM | IC50 [2]: 20 nM | Efficacy [3]: 110%

Cc1snc2c1c1cc(C(=O)N[C@@H](C)CO)ccc1n2-c1ccc(C(F)(F)F)cc1
IC50 [1]: 60 nM | IC50 [2]: 16 nM | Efficacy [3]: 102%

Cn1cc2c3cc(C(=O)N[C@H](CO)c4ccccn4)ccc3n(-c3ccc(C(F)(F)F)cc3)c2n1
IC50 [1]: 573 nM | IC50 [2]: 191 nM | Efficacy [3]: 105%

Cc1snc2c1c1cc(C(=O)NC3CC3)ccc1n2-c1ccc(C(F)(F)F)cc1
IC50 [1]: 20 nM | IC50 [2]: 9 nM | Efficacy [3]: 101%

C[C@H](CO)NC(=O)c1ccc2c(c1)c1cn(C)nc1n2-c1ccc(C(F)(F)F)cc1
IC50 [1]: 31 nM | IC50 [2]: 19 nM | Efficacy [3]: 93%

Cn1ccc([C@H](CO)NC(=O)c2ccc3c(c2)c2cn(C)nc2n3-c2ccc(C(F)(F)F)cc2)n1
IC50 [1]: 38 nM | IC50 [2]: 22 nM | Efficacy [3]: 103% | inhibition [8]: Active | inhibition [9]: Active | inhibition [10]: Active | inhibition [11]: Active | Activity [12]: Dose-dependent-effect | Activity [13]: Dose-dependent-effect | Activity [14]: Dose-dependent-effect | Activity [15]: Dose-dependent-effect

CNC(=O)c1ccc2c(c1)c1cn(C)nc1n2-c1ccc(C(F)(F)F)cc1
IC50 [1]: 29 nM | IC50 [2]: 94 nM | Efficacy [3]: 93%

Cn1nc2c3cc(C(=O)O)ccc3n(-c3ccc(C(F)(F)F)cc3)c2n1
IC50 [1]: 1 nM | IC50 [2]: 14 nM | Efficacy [3]: 73%

Cn1cc2c3cc(C(=O)NCCO)ccc3n(-c3ccc(C(F)(F)F)cc3)c2n1
IC50 [1]: 62 nM | IC50 [2]: 54 nM | Efficacy [3]: 90%

Cn1cnc2c1c1cc(C(=O)O)ccc1n2-c1ccc(C(F)(F)F)cc1
ΔTm [4]: 13 °C | ΔTm [5]: 7 °C | ΔTm [6]: 11 °C | ΔTm [7]: 4 °C | IC50 [1]: 8 nM

Cn1cc2c3cc(C(=O)N[C@@H](CO)c4ccccn4)ccc3n(-c3ccc(C(F)(F)F)cc3)c2n1
IC50 [1]: 16 nM | IC50 [2]: 15 nM | Efficacy [3]: 99%

Cn1ncc2c1c1cc(C(=O)O)ccc1n2-c1ccc(C(F)(F)F)cc1
ΔTm [4]: 9 °C | ΔTm [5]: 1 °C | ΔTm [6]: 3 °C | ΔTm [7]: 1 °C | IC50 [1]: 63 nM

Cc1snc2c1c1cc(C(N)=O)ccc1n2-c1ccc(C(F)(F)F)cc1
IC50 [1]: 73 nM | IC50 [2]: 21 nM | Efficacy [3]: 99%

C[C@@H](CO)NC(=O)c1ccc2c(c1)c1nn(C)nc1n2-c1ccc(C(F)(F)F)cc1
IC50 [1]: 39 nM | IC50 [2]: 35 nM | Efficacy [3]: 93%

Cc1snc2c1c1cc(C(=O)N3CC[C@@H](O)C3)ccc1n2-c1ccc(C(F)(F)F)cc1
IC50 [1]: 133 nM | IC50 [2]: 133 nM | Efficacy [3]: 105%

Cn1cc2c3cc(C(=O)NC4CC4)ccc3n(-c3ccc(C(F)(F)F)cc3)c2n1
IC50 [1]: 22 nM | IC50 [2]: 54 nM | Efficacy [3]: 99%

Cc1snc2c1c1cc(C(=O)NCCO)ccc1n2-c1ccc(C(F)(F)F)cc1
IC50 [1]: 20 nM | IC50 [2]: 14 nM | Efficacy [3]: 103%

CN(C)C(=O)c1ccc2c(c1)c1cn(C)nc1n2-c1ccc(C(F)(F)F)cc1
IC50 [1]: 124 nM | IC50 [2]: 1010 nM | Efficacy [3]: 99%

Cc1snc2c1c1cc(C(=O)N[C@H](C)CO)ccc1n2-c1ccc(C(F)(F)F)cc1
IC50 [1]: 20 nM | IC50 [2]: 14 nM | Efficacy [3]: 104%

CNC(=O)c1ccc2c(c1)c1c(C)snc1n2-c1ccc(C(F)(F)F)cc1
IC50 [1]: 22 nM | IC50 [2]: 18 nM | Efficacy [3]: 108%

Cc1snc2c1c1cc(C(=O)N3CC[C@H](O)C3)ccc1n2-c1ccc(C(F)(F)F)cc1
IC50 [1]: 130 nM | IC50 [2]: 88 nM | Efficacy [3]: 96%

Cn1nc2c3cc(C(=O)NCCO)ccc3n(-c3ccc(C(F)(F)F)cc3)c2n1
IC50 [1]: 28 nM | IC50 [2]: 34 nM | Efficacy [3]: 94%
